Data on four compounds can be found in patent US20210113493A1, “KETAMINE FOR THE TREATMENT OF M[…] SYMPTOMS” (priority 2016, published 2021).

The conditions of data set [1]: Aun, Br. J. Anaesthesia 83: 29-41 (1999); cited from earlier work.
Data set [2] deals with subclinical menstrually related symptoms. To be noted: 50 mg lozenges, ½ to 2 once to three times daily.
The subject of data set [3] is symptoms of menstrual related pain and emotion. The experiment in a line: Evaluation of sublingual ketamine lozenges/ODTs in women, Daily Record of Severity of Problems.

For `NC1(c2ccccc2Cl)CCCCC1=O` (stereo not shown) [norketamine], in data set [1], the “potency for use in anesthesia relative to ketamine” value was “one third the potency of ketamine”.
In the case of `CN[C@]1(c2ccccc2Cl)CCCCC1=O` [S-(+)-ketamine], the “potency for use in anesthesia relative to R-(−)-ketamine” value in data set [1] was “twice as potent as R-(−)-ketamine”.
Consider `N[C@@]1(c2ccccc2Cl)CCC[C@@H](O)C1=O`, for which the mental clarity result in data set [2] is on record as “can experience an increase in mental clarity”.
In the case of `CNC1(c2ccccc2Cl)CCCCC1=O` (racemic) [ketamine], the “subjects reporting sufficient improvement with a 25 mg dose” value in data set [3] (25 mg dose, 9 women) is “Three subjects reported sufficient improvement”. Besides, the interference with functionality result in data set [3] (50 mg dose, 9 women) is “One subject reported that a 50 mg dose interfered with their functionality”. Also, the “relief of PMS symptoms at 100 mg dose” value in data set [3] (100 mg dose, preferred by three subjects) was “substantial relief of PMS symptoms”. In addition, the negative after effects entry in data set [3] (9 women) is “no reports of negative after effects”. Also, the “subjects reporting emotional symptom improvement during the symptomatic days of their cycles” value in data set [3] (9 women, 25-100 mg ketamine racemate sublingual lozenge/ODT) amounted to 9 subjects. For the same compound, in data set [3] (all subjects, beyond the time of administration), the duration of effect result is on record as “lasting for days, or more, beyond the time of ketamine administration”. In data set [3] (physical symptoms, 9 women), the “effect on breast tenderness and cramping” value is given as “positively affected in three subjects, but not in six others”; the improvement of headaches entry is recorded as “Two subjects reported improvement of headaches”. The “duration of anesthetic effects” value in data set [3] (sublingual, first hour the intense portion) is “up to 2 hours”. For the same compound, the “duration of relief of physical symptoms” value in data set [3] (two subjects, doses of 50 mg and 100 mg, until menses began) is on record as 5 days.
